Data from PMC5648515, “A novel small molecule inhibitor of p32 mitochondrial protein overexpressed in glioma” (Journal of Translational Medicine, 2017).

Target: T1, p32 (C1qBP) (Homo sapiens, UniProt Q07021)
T1 construct: Human recombinant p32 (OriGene)
T1 sequence (Q07021 74-282): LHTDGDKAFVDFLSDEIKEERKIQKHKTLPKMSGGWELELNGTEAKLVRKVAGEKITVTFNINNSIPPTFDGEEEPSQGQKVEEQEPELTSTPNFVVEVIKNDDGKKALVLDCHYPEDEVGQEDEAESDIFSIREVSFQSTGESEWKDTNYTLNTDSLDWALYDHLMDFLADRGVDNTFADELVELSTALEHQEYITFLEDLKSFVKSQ
Test: fluorescence polarization competition with 5-FAM-labelled cyclic LyP-1 peptide; protein thermal shift with […] M36
Assay type: binding

O=C(NCCCNC(=O)Nc1cccc(C2=NCCN2)c1)Nc1cccc(C2=NCCN2)c1 [M36]
p32 thermal shift stability change: P32 protein stability was altered by M36 as observed by a shift in the melting curve of the protein
